The source of these data is patent publication US20260226417A1, “METHOD FOR INHIBITING AGING OF STEM CELLS” (ENCELL CO., LTD, priority 2023, published 2026).

For data set [1], the system named is control cells (P5), human umbilical cord-derived mesenchymal stem cells. Briefly: Cell proliferation by CCK-8 assay, 6 days, control cells (P5). Particulars: 160 μM. It counts as cell-based. The method, then:
Example 4. Validation of gut microbiota-derived metabolite candidate for senescence control Control cells (P5) and replicative senescence-induced human umbilical cord-derived mesenchymal stem cells (P18) were treated with nervonic acid (160 μM) to analyze the effects of the gut microbiota-derived metabolite having the ability to control senescence of stem cells on the proliferation of stem cells and cell size.
Specifically, control cells (p5) and replicative senescence-induced human umbilical cord-derived mesenchymal stem cells (P18) were exposed to nervonic acid (160 μM) in culture medium, followed by culture for 6 days while replacing the medium every 3 days, and cell proliferation was assessed using CCK-8 assay.

For data set [2], the system named is MyHC (myosin heavy chain), a marker of muscle regeneration, in muscle tissue. In words: MyHC immunohistochemical staining in muscle tissue of muscle disease mouse model after injection of treated P18 cells. The format is in vivo. Particulars: P18 cells treated with 160 μM for 72 hours, injected via tail vein, mdx mouse, one week after injection. The method, then: Specifically, the muscle disease mouse model used was C57BL/10ScSn-Dmdmdx/J (mdx mouse) , and C57BL/10J with the same genetic background was used as a control group. All experiments were conducted using mice aged 4 to 5 months. The cells to be injected were human umbilical cord-derived young mesenchymal stem cells (control group) (P5) and replicative senescence model (P18). More specifically, the replicative senescence model (P18) was treated with 160 μM nervonic acid or an equivalent amount of DMSO for 72 hours during culture at P18 and then dissociated as single cells with 0.25% Trypsin/EDTA (Gibco, MT, USA), and 5×10^4 cells per mouse were injected via the tail vein. One week after injection, both tibial muscles of the mouse model were harvested and fixed in 4% paraformaldehyde or frozen.
Example 10. […]
In order to assess the extent of muscle regeneration in the muscle tissue of a muscle disease mouse model after injecting mesenchymal stem cells for each condition, the extent of muscle regeneration in the tissue was determined through immunohistochemical staining for MyHC (myosin heavy chain), a marker of muscle regeneration. […]

For data set [3], the system named is control cells (P5), human umbilical cord-derived mesenchymal stem cells. In words: Cytotoxicity by CCK-8 assay, control cells (P5). The format is cell-based. Particulars: 160 μM.
In data set [4] the test system is senescence markers P16 and P21. In words: qRT-PCR of senescence markers P16 and P21 in replicative senescence model (P18). Particulars: 160 μM, 3 days. It counts as cell-based, human. The method, then: (§1) In order to verify the anti-senescence efficacy of nervonic acid, the expression levels of senescence-related markers in a control group (P5) and a replicative senescence model (P18) were measured after treatment with nervonic acid (160 μM).
Specifically, qRT-PCR performed in this example is as follows: after treating the replicative senescence model (P18) with nervonic acid for 3 days, total RNA was extracted using Trizol (Invitrogen, MA, USA) according to the method provided by the vendor. After quantifying the extracted total RNA, random hexamer and dNTP were added, and PCR was performed at 65° C. for 5 minutes. 5× SSIV buffer, 100 mM DTT, RNAse OUT, and Superscript IV RT were added and reverse transcription was performed to synthesize cDNA, and then qRT-PCR was performed to measure gene expression, and the expression levels were compared through 2^−ΔΔCt analysis.

Data set [5] has as its system human umbilical cord blood-derived mesenchymal stem cells (UCB-MSCs/passage 16). In words: β-galactosidase staining, senescent UCB-MSCs. To be noted: UCB-MSCs passage 16, 3 days. It counts as cell-based. The source says: Human placenta-derived mesenchymal stem cells (pl-mscs) Were Isolated From Placentas Separated according to the previously reported method of Choi et al. (PLOS ONE, (2017) 12 (2): e0172642), umbilical cord blood-derived mesenchymal stem cells (UCB-MSCs) were isolated from the umbilical cord blood separated according to the method of Kim et al. (FEBS Letters, (2010) 584:3601-3608), and adipose tissue-derived mesenchymal stem cells (AD-MSCs) were isolated from adipose tissue separated according to the previously reported method of Palumbo et al. (Int. J. Mol. Sci. (2018) 19:1987).
(§2) Each of the obtained mesenchymal stem cells was subcultured in aMEM (a-modified Minimum Essential Media) containing 10% fetal bovine serum (FBS) and 0.5% gentamicin (10 mg/ml).
(§3) The replicative senescence models of human adipose-derived mesenchymal stem cells (AD-MSCs/passage 18), human bone marrow-derived mesenchymal stem cells (BM-MSCs/passage 15), human umbilical cord blood-derived mesenchymal stem cells (UCB-MSCs/passage 16), and human placenta-derived mesenchymal stem cells (PL-MSCs/passage 18) established as described above were treated with nervonic acid for 3 days, and β-galactosidase staining was performed to observe the extent of senescence.

Data set [6] concerns replicative senescence model of human umbilical cord-derived mesenchymal stem cells (P18). In words: Cytotoxicity by CCK-8 assay, replicative senescence model (P18). It counts as cell-based. Particulars: 160 μM, P18, CCK-8.
The subject of data set [7] is human bone marrow-derived mesenchymal stem cells (BM-MSCs/passage 15). In words: β-galactosidase staining, senescent BM-MSCs. Particulars: BM-MSCs passage 15, 3 days. The format is cell-based. As for the experimental part: Human bone marrow-derived mesenchymal stem cells (BM-MSCs) were purchased from Cambrex (Lonza, #PT-2501).
as §2, §3

In data set [8] the test system is senescence markers P16 and P21. In words: Western blotting of P16 and P21 in replicative senescence model (P18). It counts as cell-based, human. To be noted: 160 μM. The method, then: as §1
Specifically, Western blotting performed in this example is as follows: cells were collected, and the cell membrane was broken using RIPA buffer, followed by centrifugation to collect the supernatant. Intracellular proteins were quantified using the Bradford assay (Bio-Rad, USA), and 20 μg of protein for each sample was loaded onto the gel, followed by electrophoresis using SDS. After transferring the protein to a polyvinylidene fluoride (PVDF) membrane, 1× TBST (Tris-buffered saline with 0.1% Tween 20) solution containing 5% skim milk (BD Difco, USA) was added and incubated at room temperature for 1 hour. Thereafter, P16 (1: 1000, Cell Signaling, USA), P21 (1: 1000, Cell Signaling, USA), and β-actin (1:5000; Santa Cruz, USA) antibodies were added and incubated overnight at 4° C. Then, the secondary antibody (anti-rabbit IgG-HRP; ABClon, Korea) was added and incubated at room temperature for one hour. Afterwards, the blots were visualized using ECL (Bio-Rad, USA) and assessed.

For the molecule `CCCCCCCC/C=C\CCCCCCCCCCCCCC(=O)O` [nervonic acid], in data set [1], the cell proliferation entry is recorded as “no change in proliferation”. Also, the “MyHC expression level (immunohistochemical staining) compared to injection group treated with DMSO” value in data set [2] was “slightly increased”. Besides, the “change in cell viability” value in data set [3] was “no change in cell viability”. Further, in data set [4], the “P16 mRNA level, fold compared to before treatment” value is on record as 0.78±0.01 fold and the “P21 mRNA level, fold compared to before treatment” value is on record as 0.82±0.02 fold. In data set [5], the “progression of senescence (β-galactosidase staining) compared to control group (DMSO)” value was “progression of senescence was significantly inhibited”. Besides, in data set [6], the “cell viability, fold decrease compared to before treatment” value is reported as 0.68±0.03 fold. Moreover, the “progression of senescence (β-galactosidase staining) compared to control group (DMSO)” value in data set [7] was “progression of senescence was significantly inhibited”. Besides, the “P16 protein expression level, fold compared to before treatment” value in data set [8] came to 0.65±0.07 fold. Besides, in data set [8] (not significant), the “P21 protein expression level, fold compared to before treatment” value worked out at 0.82±0.07 fold.
